Measurements from patent US20260364181A1, “AKR1C3 Targeted Heterobifunctional Small Molecule Proteolysis Targeting Chimeras” (BOARD OF REGENTS OF THE UNIVERSITY OF NEBRASKA, priority 2022, published 2026).

Assays:
[1] = target: T1, AKR1C2 (Homo sapiens, UniProt P52895); assay: AKR1C2 enzyme inhibition (oxidation of S-tetralol); format: biochemical; settings: role: substrate; 3.0 mM S-tetralol, 2.3 mM NAD+, 100 mM potassium phosphate pH 7.0, 37 °C
T1 construct: made in house
T1 sequence (P52895 1-323): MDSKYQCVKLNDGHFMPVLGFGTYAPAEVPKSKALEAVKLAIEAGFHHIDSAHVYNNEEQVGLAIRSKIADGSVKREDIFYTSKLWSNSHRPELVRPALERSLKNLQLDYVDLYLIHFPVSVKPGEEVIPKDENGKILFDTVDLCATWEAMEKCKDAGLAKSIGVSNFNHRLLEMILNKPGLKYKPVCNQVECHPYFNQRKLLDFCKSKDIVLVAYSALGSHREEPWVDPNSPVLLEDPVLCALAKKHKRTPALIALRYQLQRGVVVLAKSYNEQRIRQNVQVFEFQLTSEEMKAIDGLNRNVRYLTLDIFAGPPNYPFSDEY
Description: (§1) Enzyme Inhibition Assay. (S)-(+)-1,2,3,4-tetrahydro-1-naphthol (S-tetralol) was purchased from Sigma-Aldrich (St. Louis, MO). Nicotinamide adenine dinucleotide (NAD^+) and nicotinamide adenine dinucleotide phosphate (NADP^+) were purchased from Roche Diagnostics (Indianapolis, IN). Homogeneous recombinant enzymes AKR1C1, AKR1C2, AKR1C3 and AKR1C4 were prepared and purified as previously described.^3 The specific activities of AKR1C3 and AKR1C2 for the oxidation of S-tetralol are 2.0 and 1.5 μmol/(min mg), respectively.
(§2) Assay of Enzyme Activity. The dehydrogenase activities of AKR1C3 and AKR1C2 were determined by measuring the UV absorption of NADH formation at 340 nm using a Beckman DU-640 spectrophotometer. […] After continuously monitoring for 5 min, we recorded the increase in UV absorption using different concentrations of an enzyme to calculate the initial velocity and determine the specific activity of the enzyme.
(§3) IC50 Value Determination. The inhibitory potency for each compound was represented by IC50 values and measured as described before. The IC50 values of [COMPOUND LEFT OUT] and [COMPOUND LEFT OUT] analogues were determined by measuring their inhibition of the NADP+-dependent oxidation of S-tetralol catalyzed by AKR1C3 or AKR1C2. […]

[2] = target: T2, AKR1C3 (Homo sapiens, UniProt P42330); assay: AKR1C3 enzyme inhibition (oxidation of S-tetralol); format: biochemical; settings: role: substrate
T2 sequence (P42330 1-323): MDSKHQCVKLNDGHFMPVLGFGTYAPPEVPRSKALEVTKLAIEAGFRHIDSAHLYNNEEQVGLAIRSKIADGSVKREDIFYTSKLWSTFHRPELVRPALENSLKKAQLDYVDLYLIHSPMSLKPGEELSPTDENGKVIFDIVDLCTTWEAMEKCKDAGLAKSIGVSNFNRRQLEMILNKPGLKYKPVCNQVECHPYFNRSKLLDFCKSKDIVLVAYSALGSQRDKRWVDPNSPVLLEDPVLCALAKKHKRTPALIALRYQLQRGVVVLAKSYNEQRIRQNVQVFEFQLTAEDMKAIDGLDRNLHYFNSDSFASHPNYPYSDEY
Description: as §1, §2, §3

[3] = target: T2, AKR1C3; assay: AKR1C3 protein degradation in 22Rv1 prostate cancer cells (Western blot); format: cell-based; set-up: 22Rv1 prostate cancer cells that express high levels of AKR1C3; host or cells: 22Rv1; settings: 1 μM and 10 μM; 24 h; in words
Description: Protein Expression via Western Blot. 22Rv1 cells were seeded in a 6-well plate and incubated overnight. Next day, the cells were treated with varying concentrations of 6 (1 and 10 μM) and 5 (0.5, 1, 10, 50, 100, 250, and 500 nM; 1, 10, and 50 μM) for 24 hours and 5 (1 and 10 nM) at different time points (0, 2, 4, 6, 12, 16, 24, 48, and 72 h). Whole cell lysates were extracted in RIPA lysis buffer containing protease inhibitor and EDTA (Fisher Scientific, PI78440). Protein concentrations in each sample was estimated following BCA assay (Pierce™ BCA protein assay kit, Fisher Scientific, PI23227) as per the manufacturer's protocol. Proteins were standardized using RIPA lysis buffer with Laemelli SDS sample buffer (Thermo Scientific, AAJ61337AC) and heated at 1000C for 15 minutes. The proteins were resolved on a 4-12% premade gel (Invitrogen, NW04120BOX) at 60-90 V in 20× Bolt™ MES SDS running buffer (Fisher Scientific, B000202) and transferred onto a nitrocellulose membrane (Invitrogen, IB23001) using iBlot 2. The membranes were blocked with 2.5% non-fat dry milk (Bio-Rad, 1706404) for 1 h, and the membrane was incubated overnight on a rocking platform at 4 °C with the desired primary antibodies against AKR1C3 (mouse mAb, 1:200, Sigma, A6229), AKR1C1/C2 (rabbit mAb, 1:500, Abcam, ab179448), ARv7 (rabbit mAb, 1:500, Abcam, ab198394) and actin (mouse mAb, 1:1,000, ThermoFisher, MA5-11869). The membranes were washed three times, 10 minutes each, with 1×Tris-buffered saline (TBST, Bio-Rad, 1706435) in 0.1% Tween 20, on a rocking platform wherein they were incubated with rabbit anti-mouse IgG (ThermoFisher, 31450) or goat anti-rabbit IgG (Jackson ImmunoResearch, 111-035-003) secondary antibody (1:1,000) horseradish peroxidase conjugate for 1 hour. The membranes were again washed three times with 1×TBST, upon which they were exposed to LI-COR WesternSure PREMIUM chemiluminescent substrate (Fisher Scientific, 50-489-552) and developed in a dark room with Konica Minolta equipment. Bands were quantified by densitometry using ImageJ software and fold change in AKR1C3, AKR1C1/C2, and ARv7 protein expression was determined based on actin controls. […]
The AKR1C3 degradation effect of PROTAC 5 was screened across a range of concentrations to identify a suitable treatment protocol. 22Rv1 cells were treated with increasing concentrations of […], DMSO or lenalidomide 6 at 1 μM and 10 μM for 24 hours, and the degradation profile was determined by Western blot analysis with antibody for AKR1C3.

[4] = system: 22Rv1 prostate cancer cells; assay: 22Rv1 cell viability (MTS assay); format: cell-based; settings: 72 h
Description: Cell culture and reagents. 22Rv1 cells were purchased from the American Type Culture Collection (ATCC in 2016) and cultured in RPMI 1640 supplemented with 10% Fetal Bovine Serum (FBS, Fisher Scientific, MT35011CV) and Penicillin-Streptomycin Solution (1%, Fisher Scientific, MT30001Cl) at 37 °C in a humidified incubator with 5% carbon dioxide atmosphere. Stock solutions of E3 ligase ligand, lenalidomide 6 (10 mM), PROTAC 5 (25 mM), and AKR1C3 inhibitor 3 (100 mM) were prepared in DMSO.
Cell viability assay. Cells were seeded at a density of 10,000 cells/well in a 96-well plate containing 100 μL growth media per well and were incubated at 37 °C in a humidified incubator with 5% carbon dioxide over ~18-24 hours. Cells were treated with 6, 5, and 3 serially diluted at the indicated concentrations limiting the final DMSO concentration to less than 0.1% and incubated at 37 °C for 72 hours. 10 μL of MTS reagent (CellTiter96®Aqueous One Solution Reagent, Promega, G3580) was added to each well and incubated at the above-mentioned conditions for 4 hours. Absorbance was recorded at OD 490 nm on a Synergy LX multi-mode reader and the viability of cells were plotted as percentage of DMSO control.

[5] = substrate: O[C@H]1CCCc2ccccc21; assay: AKR1C2 enzyme inhibition (oxidation of S-tetralol); format: biochemical; settings: other: role: substrate; NADP+-dependent oxidation; pH 7.0; 37.0 °C
Description: as §1, §2, §3

`O[C@H]1CCCc2ccccc21` [S-tetralol, (S)-(+)-1,2,3,4-tetrahydro-1-naphthol] was tested, and the “specific activity of AKR1C2 for oxidation of S-tetralol” value [1] was 1.5 µmol/min/mg, the “specific activity of AKR1C3 for oxidation of S-tetralol” value ([2]; 3.0 mM S-tetralol, 2.3 mM NAD+, 100 mM potassium phosphate pH 7.0, 37 °C) was 2.0 µmol/min/mg and the Km ([2]; NADP+-dependent oxidation) was 165 µM.

`Nc1cccc2c1CN(C1CCC(=O)NC1=O)C2=O` (stereo not shown) [lenalidomide 6, lenalidomide, reference compound] was tested, and the “effect on AKR1C3 expression” value [3] was “no effect on AKR1C3 expression”, the “22Rv1 cell viability activity in words” value [4] was “no activity” and the IC50 ([4]; Homo sapiens, 22Rv1, MTS, mean±standard deviation of two independent experiments) was > 100 µM.

B1: AKR1C2 (Homo sapiens) (protein)
chain: T1 sequence (P52895 1-323)
notes: made in house
Molecule B1 has a Km [5] of 15 µM.
